The text below walks through data of US4675405A, “Quinoline compounds as antiallergic and antithrombotic agents” (American Home Products Corporation, priority 1986, dated 1987).

Each structure is given as a SMILES string.

Usually % Inhibition stands for the percentage by which the read-out fell short of the control.

The subject of assay [1] is LTB4 synthesis (lipoxygenase). Nature of the assay: inhibition of LTB4 (5,12-diHETE) synthesis by rat glycogen-elicited polymorphonuclear leukocytes. The assay is classed as cell-based. The note with it: Leukocyte; rat PMN, A23187 + [14C]arachidonic acid; read-out: 50% Inhibitory Concentration (IC50) LTB4. The procedure: (§1) This is especially true with respect to 5,12-diHETE, which is also denoted as LTB4 [see Ford-Hitchinson, J. Roy. Soc. Med., 74, 831 (1981)]. The assay of this Example measures the ability of the compounds of the inventin to inhibit the synthesis of 5HETE and LTB4 by rat glycogen-elicited polymorphonuclear leukocytes.
(§2) Peritoneal PMN are obtained from female Wistar rats (150-250 g) that received an i.p. injection of 6% glycogen (10 ml). After 24 hours, rats are killed by CO2 asphyxiation and peritoneal cells are harvested by peritoneal lavage using Ca^++ and Mg^++ free Hanks' balanced salt solution (HBSS). The peritoneal exudate is centrifuged at 400 g for 10 minutes. After centrifugation, the lavaged fluid is removed and the cell pellet is resuspended in HBSS containing Ca^++ and Mg^++ and 10 mM L-cysteine at a concentration of 2×10^7 cells/ml. To 1 ml portions of cell suspension, test drugs or vehicle are added and incubated at 37° C. for 10 minutes. Following this preincubation, the calcium ionophore (10 μM), A23187, is added together with 0.5 μCi [^14 C] arachidonic acid and further incubated for 10 minutes. […] After chromatography, the areas associated with 5-HETE and 5,12-diHETE standards are identified by autoradiography, cut out and quantitated by liquid scintillation.
(§3) Results are expressed as % inhibition of [^14 C]5-HETE and [^14 C]LTB4 (5,12-HETE)synthesis. […]

Assay [2] deals with 5-HETE synthesis (lipoxygenase). Nature of the assay: inhibition of 5-HETE synthesis by rat glycogen-elicited polymorphonuclear leukocytes. The assay is classed as cell-based. Conditions: for IC50: Leukocyte, rat PMN, A23187 + [14C]arachidonic acid, read-out: 50% Inhibitory Concentration (IC50) 5-HETE. The procedure: as §1
(§4) Peritoneal PMN are obtained from female Wistar rats (150-250 g) that received an i.p. injection of 6% glycogen (10 ml). After 24 hours, rats are killed by CO2 asphyxiation and peritoneal cells are harvested by peritoneal lavage using Ca^++ and Mg^++ free Hanks' balanced salt solution (HBSS). The peritoneal exudate is centrifuged at 400 g for 10 minutes. After centrifugation, the lavaged fluid is removed and the cell pellet is resuspended in HBSS containing Ca^++ and Mg^++ and 10 mM L-cysteine at a concentration of 2×10^7 cells/ml. To 1 ml portions of cell suspension, test drugs or vehicle are added and incubated at 37° C. for 10 minutes. Following this preincubation, the calcium ionophore (10 μM), A23187, is added together with 0.5 μCi [^14 C] arachidonic acid and further incubated for 10 minutes. The reaction is stopped by the addition of ice cold water (3 ml) and acidifying to pH 3.5. Lipoxygenase products are then extracted twice into diethyl ether. The pooled ether extracts are evaporated to dryness under nitrogen and the residue is redissolved in a small volume of methanol and spotted on aluminum backed pre-coated thin layer chromatographic plates. The samples are them co-chromatographed with authentic reference 5-HETE, 12-HETE and 5,12-diHETE in the solvent system--hexane:ether:acetic acid (50:50:3). After chromatography, the areas associated with 5-HETE and 5,12-diHETE standards are identified by autoradiography, cut out and quantitated by liquid scintillation.
Results are expressed as % inhibition of [^14 C]5-HETE and [^14 C]LTB4 (5,12-HETE)synthesis. [formula]
Testing compounds of the invention in this assay and using the antioxident 3-amino-1-[m-(trifluoromethyl)phenyl]-2-pyrazoline (BW755C) as a standard, the following results are obtained.

Assay [3] has as its system LTD4 induced bronchospasm. Nature of the assay: in vivo inhibition of LTD4 induced bronchospasm in guinea pigs. Set-up: species or system guinea pig. The note with it: for % Inhibition (Statistical Average), Overflow Volume at 1 min. / % Inhibition (Statistical Average), Overflow Volume at 3 min. / % Inhibition (Statistical Average), Overflow Volume at 5 min.: 10 minutes before LTD4. The procedure: The assay of this Example measures the in vivo ability of the compounds of the invention to inhibit the bronchospasm induced in guinea pigs by the exogenously administered leukotrienes C4 and/or D4. This assay is essentially a measure of the SRS-A antagonist properties of the compounds tested.
Male Hartley strain guinea pigs (350-600 g) are anesthetized with pentobarbital sodium (50 mg/kg, i.p.). The jugular vein is cannulated for injection of drugs and the carotid artery for monitoring blood pressure. The trachea is cannulated for artificial ventilation by a miniature Starling pump and for indirect measurement of respiratory volume changes as described infra. Additional pentobarbital sodium (15 mg/kg, i.v.) is administered to arrest spontaneous respiration. Submaximal bronchoconstrictor responses are established in control animals by varying the dose-levels of leukotriene. Intravenous dose-levels for LTC4 range from 1 to 2 μg/kg and for LTD4 the range is from 0.3 to 1 μg/kg. The aerosol bronchoprovocation dose for LTC4 is generated from 1.6 μM solution and for LTD4 from a 2.0 μM solution.
Test drugs are administered either intravenously, intragastrically, by aerosol or orally at 1 or 10 minutes before induction of bronchospasm by administration of either LTC4 or LTD4 at the predetermined dose-levels. Aerosols of soluble drugs or leukotrienes are produced in-line for 10 seconds only by actuation of an ultrasonic nebulizer (Monaghan). Aerosolized drug dosage is expressed in terms of solution concentration and by a fixed aerosol exposure time (approximately 10 seconds). Control animals receive saline in place of drug.
Respiratory volume changes are determined by a calibrated piston whose travel is recorded, via a linear transducer, on a Beckman Dynograph recorder. Maximal bronchoconstrictor volume is determined by clamping off the trachea at the end of the experiment. Overflow volumes at 1, 3 and 5 minutes are obtained from the recorded charts.
The overflow volume at 1, 3 and 5 minutes is expressed as a percentage of maximal bronchoconstriction. Combined group values are used from each of these time intervals to determine the inhibitory effect of drugs. [formula] Students t-test for unpaired data is used to determine statistical significance. Dose reponse curves are generated and ED50 doses are interpolated from the regression lines.
Results for compounds of the invention in this assay, using LTD4 for induction of bronchospasm, are given below:
Two other compounds of this invention are tested in this assay and the results are expressed based on the following calculations which employ the values obtained for the overflow volumes at 1, 3 and 5 minutes:
Area under the volume overflow curve (AUC) is estimated, using the overflow values at 1, 3 and 5 minutes, and expressed as a percentage of the maximal overflow AUC (equation 1): [formula] Drug effects are reported as percent inhibition of % max AUC values obtained from appropriate control animals (equation 2): [formula]
Student's t-test for unpaired data is used to determine statistical significance (p<0.05). IC50 values can also be determined by inverse prediction from linear regression lines through points between 10 and 90% inhibition.

For assay [4], the system named is TxB2 synthesis (cyclooxygenase). Put plainly: inhibition of synthesis of the cyclooxygenase oxidation product TxB2 by rat PMN. The assay is classed as cell-based. Here is the method: as §4
The procedure of Example 5 is also employed for the determination of the ability of the compounds of the invention to inhibit the synthesis of the arachidonic acid cyclooxygenase oxidation product TxB2.
In this assay, the procedure of Example 5 is carried out as described. However, in order to determine cyclooxygenase activity, the samples are cochromatographed with authentic reference TxB2 in the solvent system ethyl acetate:formic acid (80:1) and the upper phase of ethyl acetate:isoctane:acetic acid:water (110:50:20:100). After chromatography, the areas associated with TxB2 standard are identified by autoradiography, cut out and quantitated by liquid scintillation techniques.
The results are calculated as in Example 5.

Assay [5] deals with ovalbumin induced bronchospasm. Nature of the assay: in vivo inhibition of ovalbumin induced bronchospasm mediated by endogenous mediators in sensitized guinea pigs. Set-up: species or system guinea pig. Conditions: 10 minutes before i.v. ovalbumin challenge. Here is the method: The assay of this Example measures the in vivo ability of the compounds of the invention to inhibit the bronchospasm induced in guinea pigs by endogenous mediators of the bronchoconstriction.
Male Hartley strain guinea pigs weighing 250-350 g are sensitized to chicken ovalbumin (OA) (10 mg i.p.) on days 1 and 3 and used starting on day 26. The animals are anesthetized with pentobarbital sodium (50 mg/kg, i.p.), bilateral vagotomy is performed, and the jugular vein is cannulated for injection of drugs and the carotid artery for monitoring blood pressure. The trachea is cannulated for artificial ventilation by miniature Starling pump and for indirect measurement of respiratory volume changes as described, infra. Succinylcholine (2 mg/kg, i.v.) is administered to arrest spontaneous respiration. […]
Respiratory volume changes are determined by a calibrated piston whose travel is recorded, via a linear transducer, on a Beckman Dynograph recorder. Maximal bronchoconstrictor volume is determined by clamping off the trachea at the end of the experiment. Overflow volumes at minutes 1, 3 and 5 are obtained from the recorded charts.
Area under the volume overflow curve (AUC) is estimated, using the overflow values at 1, 3 and 5 minutes, and expressed as a percentage of the maximal overflow AUC (equation 1): [formula] […]

The subject of assay [6] is 5-HETE and LTB4 synthesis (lipoxygenase). Put plainly: inhibition of synthesis of lipoxygenase products 5-HETE and LTB4 by rat PMN (product not separately stated). In kind it is cell-based. Here is the method: as §1, §2, §3

In the case of `CCCCS(=O)(=O)Nc1cccc(OCc2ccc3ccccc3n2)c1` [Example 2B, N-[3-[(2-Quinolinyl)methoxy]phenyl]-1-butane sulfonamide], in assay [1], the IC50 was determined as 2.1 µM. Also, the IC50 in assay [2] was 1.6 µM. Besides, in assay [3] (50 mg/kg intraduodenal), the “% Inhibition (Statistical Average), Overflow Volume at 1 min.” value (from here on “% Inhibition … at 1 min.”) turned out to be 08%; the “% Inhibition (Statistical Average), Overflow Volume at 3 min.” value (shortened to “% Inhibition … at 3 min.”) was determined as 41%; the “% Inhibition (Statistical Average), Overflow Volume at 5 min.” value (“% Inhibition … at 5 min.” below) stood at 41%. Further, in assay [4], the “% Inhibition at 100 μm (TxB2 synthesis)” value is reported as 73%.
Turning to `CCS(=O)(=O)Nc1cccc(OCc2ccc3ccccc3c2)c1` [Example 2C, N-[3-[(2-Naphthalenyl)methoxy]phenyl]ethane sulfonamide], in assay [3] (50 mg/kg intraduodenal), the “% Inhibition … at 1 min.” value turned out to be 61%; the “% Inhibition … at 3 min.” value amounted to 41%; the “% Inhibition … at 5 min.” value turned out to be 53%.
`O=S(=O)(Nc1cccc(OCc2ccc3ccccc3n2)c1)C(F)(F)F` [Example 3, N-[3-[(2-Quinolinyl)methoxy]phenyl]trifluoromethane sulfonamide]: the figures for the “% Inhibition” value in assay [5] (25 mg/kg intragastric) and in assay [3] (25 mg/kg administered intragastrically) were 97% and 98%, respectively. The ED50 in assay [5] (Cavia porcellus, 10 min, intragastric, read-out: IC50 (the source's name)) came to 0.6 mg/kg; in assay [3] (Cavia porcellus, po, administered intragastrically, LTD4 induced bronchospasm, read-out: IC50 (the source's name)), 0.1 mg/kg.
Regarding `NC1=NN(c2cccc(C(F)(F)F)c2)CC1` [BW755C, 3-amino-1-[m-(trifluoromethyl)phenyl]-2-pyrazoline, reference compound], the values for the IC50 in assay [1] and in assay [2] were 30 µM and 43 µM, respectively.
Regarding `CCS(=O)(=O)Nc1cccc(OCc2ccc3ccccc3n2)c1` [Example 2A, N-[3-[(2-Quinolinyl)methoxy]phenyl]ethane sulfonamide], in assay [2] (100 μm), the “% Inhibition at 100 μm (first value, 5-HETE by column order)” value worked out at 93%. Also, in assay [3] (50 mg/kg intraduodenal), the “% Inhibition … at 1 min.” value was determined as 88%; the “% Inhibition … at 3 min.” value is on record as 86%; the “% Inhibition … at 5 min.” value is on record as 81%. Further, the “% Inhibition at 100 μm (TxB2 synthesis)” value in assay [4] came to 56%.
For `CCS(=O)(=O)Nc1cccc(OCc2cc3ccccc3s2)c1` [Example 2D, N-[3-[(2-Benzo[b]thienyl)methoxy]phenyl]ethane sulfonamide], the “>50% Inhibitory at 50 μm” value in assay [6] is listed as “+ (inhibition of >50%)”. Moreover, the “% Inhibition of Max AUC” value in assay [3] (50 mg/kg intraduodenal, 10 minutes before induction of bronchospasm) is on record as 13%. Further, the “50% Inhibition at 50 μm (TxB2 synthesis)” value in assay [4] was “+ (inhibition of >50%)”.
Take `CCCS(=O)(=O)Nc1cccc(OCc2cc3ccccc3s2)c1` [Example 2E, N-[3-[(2-Benzo[b]thienyl]methoxy]phenyl]-1-propane sulfonamide]: in assay [6], the “>50% Inhibitory at 50 μm” value was “+ (inhibition of >50%)”. Further, the “50% Inhibition at 50 μm (TxB2 synthesis)” value in assay [4] was “+ (inhibition of >50%)”.
